Test results reported in patent US20200093821A1, “Pharmaceutical Compositions of a Benzothiophene Compound” (Hexal AG, priority 2016, published 2020).

Assays:
[1] = UV irradiation of suspensions in oils, HPLC analysis; assay type: physicochemical; settings: irradiated 4 hours; for Brexpiprazole (area) / Compound I (area) / Compound II (area): HPLC
Procedure: [table] Suspensions of brexpiprazole anhydrate or brexpiprazole dihydrate (about 10 mg per experiment) in different oils (about 105 mg per suspension) were prepared and irradiated for 4 hours.

[2] = UV exposure of solid brexpiprazole forms (Atlas Suntester XLS+); assay type: physicochemical; settings: 60 h Suntester
Text: Brexpiprazole anhydrate and brexpiprazole dihydrate were respectively exposed to UV-radiation using an appropriate illumination device (Atlas Suntester XLS+) at 250 W/m^2 for 60 hrs, which corresponds to a total UV light intensity of […].

[3] = UV lamp irradiation of brexpiprazole solution in toluene/methanol; assay type: physicochemical
Procedure: For the structure determination of the compound of formula II in Example 2 it was therefore necessary to produce larger quantities of that compound. […] The suspension was heated to 50° C. After stirring for 10 minutes, a clear solution was obtained. The solution was put into a transparent glass vial and irradiated for 18 h by a UV lamp (UVHQ 250 Z by “UV Technik Speziallampen”; radiation strength UVC/UVB/UVA: 38 W at 200 nm-280 nm; 20 W at 280 nm-315 nm; 18 W at 315 nm-400 nm). A light brown, clear solution was obtained. A mixture of brexpiprazole and compound II was obtained (19:81 area %).

[4] = target: dopamine D2 receptors (Homo sapiens, UniProt P14416); settings: cited from earlier work
[5] = target: serotonin 5-HT2A receptors (Homo sapiens, UniProt P28223); settings: cited from earlier work
[6] = target: T1, serotonin 5-HT1A receptors (Homo sapiens, UniProt P08908); settings: cited from earlier work
T1 sequence (P08908 1-422): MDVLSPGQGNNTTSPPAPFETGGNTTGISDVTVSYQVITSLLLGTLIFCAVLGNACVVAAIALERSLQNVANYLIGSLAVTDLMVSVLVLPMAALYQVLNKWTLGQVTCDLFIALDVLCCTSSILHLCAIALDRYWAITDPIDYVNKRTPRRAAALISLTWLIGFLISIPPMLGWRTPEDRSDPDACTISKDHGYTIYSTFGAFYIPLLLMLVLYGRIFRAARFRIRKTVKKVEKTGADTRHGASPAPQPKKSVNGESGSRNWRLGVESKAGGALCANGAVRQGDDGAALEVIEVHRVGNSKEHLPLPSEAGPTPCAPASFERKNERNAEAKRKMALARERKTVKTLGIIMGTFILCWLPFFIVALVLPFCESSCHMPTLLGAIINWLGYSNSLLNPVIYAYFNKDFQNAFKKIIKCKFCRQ

[7] = suspension in castor oil, listed as Brx. Anhydrate
[8] = suspension in peanut oil, listed as Brx. Anhydrate
[9] = suspension in castor oil, listed as Brx. Dihydrate
[10] = suspension in peanut oil, listed as Brx. Dihydrate
[11] = toluene/methanol solution, UV lamp 18 h

Sequence of serotonin 5-HT2A receptors (P28223 whole entry): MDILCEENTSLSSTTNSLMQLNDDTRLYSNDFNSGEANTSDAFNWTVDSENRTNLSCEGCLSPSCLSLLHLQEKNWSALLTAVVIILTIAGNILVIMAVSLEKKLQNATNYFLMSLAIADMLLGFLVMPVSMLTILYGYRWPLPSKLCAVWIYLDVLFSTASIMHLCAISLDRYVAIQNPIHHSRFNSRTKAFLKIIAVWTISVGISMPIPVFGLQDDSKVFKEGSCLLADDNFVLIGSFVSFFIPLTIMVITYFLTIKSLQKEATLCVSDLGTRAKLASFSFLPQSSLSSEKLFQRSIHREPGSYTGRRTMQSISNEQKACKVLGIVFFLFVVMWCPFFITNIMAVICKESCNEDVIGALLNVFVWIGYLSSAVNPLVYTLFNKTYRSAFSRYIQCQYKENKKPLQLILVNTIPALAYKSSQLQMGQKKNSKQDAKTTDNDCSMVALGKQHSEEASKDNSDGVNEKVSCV
Sequence of dopamine D2 receptors (P14416 whole entry): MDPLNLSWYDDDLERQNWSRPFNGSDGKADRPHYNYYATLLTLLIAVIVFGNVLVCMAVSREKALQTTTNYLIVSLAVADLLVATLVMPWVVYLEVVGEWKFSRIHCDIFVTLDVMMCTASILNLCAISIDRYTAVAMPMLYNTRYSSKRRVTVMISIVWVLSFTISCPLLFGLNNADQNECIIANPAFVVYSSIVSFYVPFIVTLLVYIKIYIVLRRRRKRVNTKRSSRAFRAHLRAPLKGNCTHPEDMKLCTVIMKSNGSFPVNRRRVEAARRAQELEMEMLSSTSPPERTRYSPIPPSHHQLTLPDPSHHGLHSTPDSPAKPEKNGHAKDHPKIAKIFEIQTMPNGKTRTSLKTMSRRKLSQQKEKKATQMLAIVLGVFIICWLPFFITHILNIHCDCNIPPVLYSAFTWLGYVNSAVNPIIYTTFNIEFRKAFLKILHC

Q: For O=c1ccc2ccc(OCCCCN3CCN(c4cccc5sccc45)CC3)cc2[nH]1 [Brexpiprazole Anhydrate], which “Brexpiprazole (area)” value [1, 7] is on record?
A: 99.6%

Q: What about the “Compound I (area)” value [1, 7] of the same compound?
A: 0.0%

Q: And the “Compound II (area)” value [1, 7]?
A: 0.4%

Q: What about the “Brexpiprazole (area)” value ([1]; suspension in corn oil) of the same compound?
A: 99.8%

Q: What about the “Compound I (area)” value ([1]; suspension in corn oil) of the same compound?
A: 0.0%

Q: What about the “Compound II (area)” value ([1]; suspension in corn oil) of the same compound?
A: 0.2%

Q: And the “Brexpiprazole (area)” value [1, 8]?
A: 99.8%

Q: What about the “Compound I (area)” value [1, 8] of the same compound?
A: 0.0%

Q: And the “Compound II (area)” value [1, 8]?
A: 0.2%

Q: Which results are given for O=c1ccc2ccc(OCCCCN3CCN(c4cccc5sccc45)CC3)cc2[nH]1 [Brexpiprazole Dihydrate]?
A: sensitivity to UV-induced dimerization vs brexpiprazole anhydrate ([1]; oil suspensions): more sensitive; Brexpiprazole (area) [1, 9]: 61.7%; Compound I (area) [1, 9]: 35.1%; Compound II (area) [1, 9]: 3.2%; Brexpiprazole (area) ([1]; suspension in corn oil): 64.9%; Compound I (area) ([1]; suspension in corn oil): 32.2%; Compound II (area) ([1]; suspension in corn oil): 3.0%; Brexpiprazole (area) [1, 10]: 64.3%; Compound I (area) [1, 10]: 32.4%; Compound II (area) [1, 10]: 3.3%; sensitivity to UV-induced dimerization vs anhydrate form [2]: significantly more sensitive

Q: For O=c1ccc2ccc(OCCCCN3CCN(c4cccc5sccc45)CC3)cc2[nH]1 [Brexpiprazole, 7-[4-[4-(1-Benzothiophen-4-yl)piperazin-1-yl]butoxy]quinolin-2(1H)-one], which “sensitivity to UV-radiation vs brexpiprazole anhydrate” value ([3]; brexpiprazole in solution) is on record?
A: significantly more sensitive

Q: What about the “stability in control experiment” value ([3]; solution protected from UV light, vial wrapped in aluminum foil) of the same compound?
A: remained stable

Q: And the “brexpiprazole remaining in mixture” value [3, 11]?
A: 19 area %

Q: What about the “compound II formed in mixture” value [3, 11] of the same compound?
A: 81 area %

Q: What about the “activity at dopamine D2 receptors” value [4] of the same compound?
A: partial agonist activity

Q: What about the “activity at serotonin 5-HT2A receptors” value [5] of the same compound?
A: antagonist activity

Q: What about the “activity at serotonin 5-HT1A receptors” value [6] of the same compound?
A: partial agonist activity
